Each block holds one compound with its values, some of them ahead of it.
What was measured:
[1] = tested on: IL-12 production in THP-1 cells; test: Inhibition of IL-12 production in THP-1 cells (ELISA); assay type: cell-based; settings: Homo sapiens, read-out: IC50 against IL-12 production
Source text: The foregoing and other useful combination therapies will be understood and appreciated by those of skill in the art. Potential advantages of such combination therapies include the ability to use less of each of the individual active ingredients to minimize toxic side effects, synergistic improvements in efficacy, improved ease of administration or use and/or reduced overall expense of compound preparation or formulation. The biological activities of a compound of this invention can be evaluated by a number of cell-based assays. One of such assays can be conducted using cells from human peripheral blood mononuclear cells (PBMC) or human monocytic cell line (THP-1). The cells are stimulated with a combination of human interferon-γ (IFN-γ) and lipopolysaccharide or a combination of IFN-γ and Staphylococcus aureus Cowan I in the presence of a test compound. The level of inhibition of IL-12 production can be measured by, e.g., determining the amount of p70 by using a sandwich ELBA assay with anti-human IL-12 antibodies. IC50 of the test compound can then be determined. Specifically, PBMC or THP-1 cells are incubated with the test compound. Cell viability was assessed using the bioreduction of MTS [3-(4,5-dimethylthiazol-2-yl)-5-(3-carboxymethoxyphenyl)-2-(4-sulfophenyl)-2H-tetrazolium] (Promega, Madison, Wis.). […]

[2] = tested on: human IL-12 p35 promoter; test: IL-12 p35 promoter/luciferase reporter in transiently transfected RAW264.7 cells; assay type: cell-based, murine; settings: for p35 promoter-driven luciferase expression: RAW264.7, IFN-γ/LPS or IFN-γ/SAC
Experimental: (§1) As a result of the Northern blot findings, we undertook a study of the p35 and p40 promoter activities. We transiently transfected the murine macrophage cell line RAW264.7 with DNA constructs in which the p35 and p40 promoters directed expression of the luciferase reporter gene. The RAW264.7 cell line was obtained from American Type Culture Collection (Manassas, Va.) and was cultured in DMEM (ATCC, Manassas, Va.) supplemented with 10% FCS (ATCC, Manassas, Va.), and 1% penicillin/Streptomycin (Gibco-BRL, New York, N.Y.).
Both p35 and p40 promoter-driven luciferase production in response to stimulation were determined in the presence or absence of Compound 1 and Compound 2. To construct the human IL-12 p35 and p40 promoter/luciferase reporter constructs, we generated p35 (−1.5 kb to +3 bp) and p40 (−1.3 kb to +56 bp) promoter fragments, which contained several sequence motifs of the human IL-12 p35 and p40 genes. The fragments were generated by PCR from genomic DNA obtained from human PBMC using primers as follows: IL-12 p35 1.5 kb-F: 5′-[…]-3′(SEQ ID NO:3) and IL-12 p35 1.5 kb-R: 5′-[…]-3′ (SEQ ID NO:4); IL-12 p40 −1.3 kb-F: 5′-[…]-3′ (SEQ ID NO:5) and IL-12 p40 1.3 kb-R: 5′-[…]-3′ (SEQ ID NO:6). The deletion in the p40 promoter reporter constructs were generated by PCR with primers as follows: IL-12 p40 −250 bp to +56 bp (p40/−250 bp) F: 5′-[…]-3′(SEQ ID NO:7) and IL-12 p40 −250 bp to +56 bp (p401/−250 bp) R: 5′-TGCTCTGGGCAGGACGGAG-3′ (SEQ ID NO:8); IL-12 p40 −150 bp to +56 bp (p40/−150 bp) F: 5′-[…]-3′ (SEQ ID NO:9) and IL-12 p40 −150 bp to +56 bp (p40/−150 bp) R: 5′-TGCTCTGGGCAGGACGGAG-3′(SEQ ID NO:10). […]
Cells were co-transfected with the vector pCMV (BD Biosciences Clontech) in which the constitutively active CMV promoter directs β-galactosidase expression for the monitoring of transfection efficiency. Luciferase and β-galactosidase activity were determined in cell extracts prepared according to the Luciferase assay system (Promega) and Luminescent n-gal Detection system (BD Biosciences Clontech). […]

[3] = tested on: human IL-12 p40 promoter; test: IL-12 p40 promoter/luciferase reporter in transiently transfected RAW264.7 cells; assay type: cell-based, murine; settings: for p40 promoter-driven luciferase expression: RAW264.7, IFN-γ/LPS or IFN-γ/SAC
Experimental: as §1
Both p35 and p40 promoter-driven luciferase production in response to stimulation were determined in the presence or absence of Compound 1 and Compound 2. To construct the human IL-12 p35 and p40 promoter/luciferase reporter constructs, we generated p35 (−1.5 kb to +3 bp) and p40 (−1.3 kb to +56 bp) promoter fragments, which contained several sequence motifs of the human IL-12 p35 and p40 genes. The fragments were generated by PCR from genomic DNA obtained from human PBMC using primers as follows: IL-12 p35 1.5 kb-F: 5′-[…]-3′(SEQ ID NO:3) and IL-12 p35 1.5 kb-R: 5′-[…]-3′ (SEQ ID NO:4); IL-12 p40 −1.3 kb-F: 5′-[…]-3′ (SEQ ID NO:5) and IL-12 p40 1.3 kb-R: 5′-[…]-3′ (SEQ ID NO:6). The deletion in the p40 promoter reporter constructs were generated by PCR with primers as follows: IL-12 p40 −250 bp to +56 bp (p40/−250 bp) F: 5′-[…]-3′(SEQ ID NO:7) and IL-12 p40 −250 bp to +56 bp (p401/−250 bp) R: 5′-TGCTCTGGGCAGGACGGAG-3′ (SEQ ID NO:8); IL-12 p40 −150 bp to +56 bp (p40/−150 bp) F: 5′-[…]-3′ (SEQ ID NO:9) and IL-12 p40 −150 bp to +56 bp (p40/−150 bp) R: 5′-TGCTCTGGGCAGGACGGAG-3′(SEQ ID NO:10). The resulting PCR products were ligated upstream of the luciferase gene in pGL3-Basic vector (Promega). All constructs were verified by DNA sequencing.
Transfection was accomplished using SuperFect Transfection Reagent (Qiagen) by the described protocol. Total amount of transfect DNA was kept constant by including the respective control plasmids without insertions.
Cells were co-transfected with the vector pCMV (BD Biosciences Clontech) in which the constitutively active CMV promoter directs β-galactosidase expression for the monitoring of transfection efficiency. Luciferase and β-galactosidase activity were determined in cell extracts prepared according to the Luciferase assay system (Promega) and Luminescent n-gal Detection system (BD Biosciences Clontech). Luciferase activity was then normalized using the β-galactosidase value. […] ELISA was performed by the following method. Human IL-12 p70 (heterodimer) was assayed using ELI-PAIR kit from Cell Sciences (Norwood, Mass.), according to the manufacturer's instructions. Human IL-12 p40 was assayed using ELISA kit from Cell Sciences (Norwood, Mass.) according to the manufacturer's instructions.
We then set out to analyze the IL-12 transcriptional promoter elements that played a role in this effect. We performed deletion analyses using the p40 promoter. This promoter, rather than the p35 promoter, was chosen because the transcriptional elements are better defined in the p40 promoter. To identify the IL-12 inhibitor responsive elements involved in the p40 gene transcription activation, three different promoters were constructed and transiently transfected into RAW264.7 cells.
To assess the role of individual p40 promoter transcription elements in more detail, mutations within many of these elements have been generated. […]

- IC50 [1]: 40 nM
Compound: C(=NNc1nc(OCCc2ccccn2)nc(N2CCOCC2)n1)c1c[nH]c2ccccc12 [Compound 1, N-(1H-indol-3-ylmethylene)-N′-[4-morpholin-4-yl-6-(2-pyridin-2-yl-ethoxy)-[1,3,5]triazin-2-yl]-hydrazine]
- p35 promoter-driven luciferase expression [2]: suppressed
- p40 promoter-driven luciferase expression [3]: suppressed
- IL-12 p40 promoter-driven luciferase activity, deletion construct ([3]; RAW264.7, IFN-γ/LPS, promoter containing Ets-2, PU-1, NF-κB and API elements): significantly suppressed

Compound: Cc1cccc(C=NNc2cc(N3CCOCC3)nc(OCCc3ccccn3)n2)c1 [Compound 2, N-(3-methyl-benzylidene)-N′-[6-morpholin-4-yl-2-(2-pyridin-2-yl-ethoxy)-pyrimidin-4-yl]-hydrazine]
- IC50 [1]: 10 nM
- p35 promoter-driven luciferase expression [2]: suppressed
- p35 promoter-driven luciferase expression, comparison between compounds ([2]; RAW264.7, stimulated by IFN-γ/LPS, Compound 2 compared with Compound 1): inhibited more effectively
- p40 promoter-driven luciferase expression [3]: suppressed
- effect of ICSBP over-expression on inhibition of p40 expression ([3]; co-transfection of ICSBP with IL-12 promoter-Luc reporter): decreased the inhibition
- inhibition of expression in NFκB-element mutant p40 promoter construct ([3]; site-directed mutant of the NFκB element, IFN-γ/LPS): reduced
